{"source": "paper PMC11238352", "about": "“Combination of dual JAK/HDAC inhibitor with regorafenib synergistically reduces tumor growth, metastasis, and regorafenib-induced toxicity in colorectal cancer” (Journal of Experimental & Clinical Cancer Research : CR, 2024)", "assay_in_all_cases": "PamStation PTK kinomic profiling", "format_in_all_cases": "cell-based", "key": {"FAK2": {"molecular_target": "T1, FAK2 (Homo sapiens, UniProt Q14289)", "T1 construct": "cell lysates were prepared; endogenous in cells; host or cells: SW480 and RKO", "conditions": "SW480, 45 min, change from DMSO control", "description": "(§1) SW480 and RKO cells were treated with vehicle (DMSO), JAK/HDACi, regorafenib, and their combination for 45 min, and cell lysates were prepared. Tyrosine kinase (PTK) activity (kinomic) profiling was performed using the PamStation®12 platform (PamGene, BV, The Netherlands). As per standard kinomic protocol as described previously. Whole-chip comparative analysis (BioNavigator Upkin PTK v8.0) was performed between groups generating Mean Kinase Statistics (direction of change)."}, "Abl": {"molecular_target": "T2, Abl (Homo sapiens, UniProt P00519)", "T2 construct": "cell lysates were prepared; endogenous in cells; host or cells: SW480 and RKO", "conditions": "change from DMSO control", "description": "as §1"}, "Axl": {"molecular_target": "T3, Axl (Homo sapiens, UniProt P30530)", "T3 construct": "cell lysates were prepared; endogenous in cells; host or cells: SW480 and RKO", "conditions": "change from DMSO control", "description": "as §1"}, "EphA3": {"molecular_target": "T4, EphA3 (Homo sapiens, UniProt P29320)", "T4 construct": "cell lysates were prepared; endogenous in cells; host or cells: SW480 and RKO", "conditions": "change from DMSO control", "description": "as §1"}, "HER4": {"molecular_target": "T5, HER4 (Homo sapiens, UniProt Q15303)", "T5 construct": "we conducted kinome analysis on lysates of SW480 and RKO cells; endogenous in cells; host or cells: SW480 and RKO cells", "conditions": "change from DMSO control", "description": "as §1"}, "Fgr": {"molecular_target": "T6, Fgr (Homo sapiens, UniProt P09769)", "T6 construct": "we conducted kinome analysis on lysates of SW480 and RKO cells; endogenous in cells; host or cells: SW480 and RKO cells", "conditions": "change from DMSO control", "description": "as §1"}, "Src": {"molecular_target": "T7, Src (Homo sapiens, UniProt P12931)", "T7 construct": "cell lysates were prepared; endogenous in cells; host or cells: SW480 and RKO", "T7 sequence (P12931 whole entry)": "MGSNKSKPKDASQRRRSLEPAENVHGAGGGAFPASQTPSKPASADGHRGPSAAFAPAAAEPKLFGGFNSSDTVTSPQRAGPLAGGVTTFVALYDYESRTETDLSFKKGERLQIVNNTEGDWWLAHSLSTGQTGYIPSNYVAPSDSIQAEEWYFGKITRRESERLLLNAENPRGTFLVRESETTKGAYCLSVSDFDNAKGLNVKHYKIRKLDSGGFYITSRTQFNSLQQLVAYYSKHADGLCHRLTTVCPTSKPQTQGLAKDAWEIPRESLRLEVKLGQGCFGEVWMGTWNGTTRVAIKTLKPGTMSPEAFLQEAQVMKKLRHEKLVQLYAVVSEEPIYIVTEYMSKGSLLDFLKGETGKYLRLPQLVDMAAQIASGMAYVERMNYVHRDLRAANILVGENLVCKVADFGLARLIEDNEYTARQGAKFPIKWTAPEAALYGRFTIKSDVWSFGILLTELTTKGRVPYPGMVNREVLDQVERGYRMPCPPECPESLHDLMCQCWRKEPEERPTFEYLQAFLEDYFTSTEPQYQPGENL", "conditions": "change from DMSO control", "description": "as §1"}, "FGFR2": {"molecular_target": "T8, FGFR2 (Homo sapiens, UniProt P21802)", "T8 construct": "cell lysates were prepared; endogenous in cells; host or cells: SW480 and RKO", "T8 sequence (P21802 22-821)": "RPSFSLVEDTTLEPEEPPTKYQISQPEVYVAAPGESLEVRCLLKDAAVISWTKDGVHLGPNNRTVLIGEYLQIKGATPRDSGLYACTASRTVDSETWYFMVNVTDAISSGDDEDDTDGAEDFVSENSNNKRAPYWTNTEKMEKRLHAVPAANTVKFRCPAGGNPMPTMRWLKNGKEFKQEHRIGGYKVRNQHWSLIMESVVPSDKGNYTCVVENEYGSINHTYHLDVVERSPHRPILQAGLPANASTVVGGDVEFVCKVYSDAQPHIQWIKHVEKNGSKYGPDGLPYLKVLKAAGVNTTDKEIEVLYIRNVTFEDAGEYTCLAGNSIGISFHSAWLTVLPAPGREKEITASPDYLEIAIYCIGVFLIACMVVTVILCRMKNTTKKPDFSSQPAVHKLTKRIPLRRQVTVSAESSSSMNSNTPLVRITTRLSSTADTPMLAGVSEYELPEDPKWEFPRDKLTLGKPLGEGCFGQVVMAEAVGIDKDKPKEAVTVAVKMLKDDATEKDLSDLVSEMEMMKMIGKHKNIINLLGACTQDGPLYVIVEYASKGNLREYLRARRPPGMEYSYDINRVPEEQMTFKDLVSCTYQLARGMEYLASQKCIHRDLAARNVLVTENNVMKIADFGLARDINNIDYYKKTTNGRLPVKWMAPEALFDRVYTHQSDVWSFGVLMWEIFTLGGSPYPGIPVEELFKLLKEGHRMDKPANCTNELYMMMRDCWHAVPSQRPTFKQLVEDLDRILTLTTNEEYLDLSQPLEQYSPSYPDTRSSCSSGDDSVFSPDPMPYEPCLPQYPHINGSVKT", "conditions": "change from DMSO control", "description": "as §1"}, "PDGFR[alpha]": {"molecular_target": "T9, PDGFR[alpha] (Homo sapiens, UniProt P16234)", "T9 construct": "cell lysates were prepared; endogenous in cells; host or cells: SW480 and RKO", "conditions": "change from DMSO control", "description": "as §1"}, "EphA8": {"molecular_target": "T10, EphA8 (Homo sapiens, UniProt P29322)", "T10 construct": "cell lysates were prepared; endogenous in cells; host or cells: SW480 and RKO", "conditions": "change from DMSO control", "description": "as §1"}, "HER2": {"molecular_target": "T11, HER2 (Homo sapiens, UniProt P04626)", "T11 construct": "cell lysates were prepared; endogenous in cells; host or cells: SW480 and RKO", "conditions": "change from DMSO control", "description": "as §1"}, "FGFR3": {"molecular_target": "T12, FGFR3 (Homo sapiens, UniProt P22607)", "T12 construct": "cell lysates were prepared; endogenous in cells; host or cells: SW480 and RKO", "T12 sequence (P22607 23-806)": "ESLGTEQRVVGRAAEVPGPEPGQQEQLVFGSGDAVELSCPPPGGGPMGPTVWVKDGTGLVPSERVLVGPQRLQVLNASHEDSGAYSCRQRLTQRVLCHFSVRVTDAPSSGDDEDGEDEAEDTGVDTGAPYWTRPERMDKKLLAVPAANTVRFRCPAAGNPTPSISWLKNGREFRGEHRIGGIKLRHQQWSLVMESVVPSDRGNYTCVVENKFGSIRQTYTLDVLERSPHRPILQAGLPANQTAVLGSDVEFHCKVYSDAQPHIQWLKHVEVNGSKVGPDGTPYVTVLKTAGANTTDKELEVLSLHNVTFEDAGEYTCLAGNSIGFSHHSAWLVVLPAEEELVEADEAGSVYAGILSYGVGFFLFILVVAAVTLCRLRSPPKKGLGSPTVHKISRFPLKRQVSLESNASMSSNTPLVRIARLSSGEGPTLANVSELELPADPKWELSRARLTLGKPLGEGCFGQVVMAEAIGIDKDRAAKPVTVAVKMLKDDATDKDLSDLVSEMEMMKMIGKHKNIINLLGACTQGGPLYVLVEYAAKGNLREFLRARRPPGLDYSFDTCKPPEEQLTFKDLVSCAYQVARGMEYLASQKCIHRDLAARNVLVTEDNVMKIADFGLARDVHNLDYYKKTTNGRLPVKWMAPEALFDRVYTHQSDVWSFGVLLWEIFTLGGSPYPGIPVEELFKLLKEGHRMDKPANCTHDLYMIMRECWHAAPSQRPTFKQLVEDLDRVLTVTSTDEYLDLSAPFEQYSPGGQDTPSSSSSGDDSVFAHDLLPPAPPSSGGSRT", "conditions": "change from DMSO control", "description": "as §1"}, "FLT3": {"molecular_target": "T13, FLT3 (Homo sapiens, UniProt P36888)", "T13 construct": "we conducted kinome analysis on lysates of SW480 and RKO cells; endogenous in cells; host or cells: SW480 and RKO cells", "T13 sequence (P36888 27-993)": "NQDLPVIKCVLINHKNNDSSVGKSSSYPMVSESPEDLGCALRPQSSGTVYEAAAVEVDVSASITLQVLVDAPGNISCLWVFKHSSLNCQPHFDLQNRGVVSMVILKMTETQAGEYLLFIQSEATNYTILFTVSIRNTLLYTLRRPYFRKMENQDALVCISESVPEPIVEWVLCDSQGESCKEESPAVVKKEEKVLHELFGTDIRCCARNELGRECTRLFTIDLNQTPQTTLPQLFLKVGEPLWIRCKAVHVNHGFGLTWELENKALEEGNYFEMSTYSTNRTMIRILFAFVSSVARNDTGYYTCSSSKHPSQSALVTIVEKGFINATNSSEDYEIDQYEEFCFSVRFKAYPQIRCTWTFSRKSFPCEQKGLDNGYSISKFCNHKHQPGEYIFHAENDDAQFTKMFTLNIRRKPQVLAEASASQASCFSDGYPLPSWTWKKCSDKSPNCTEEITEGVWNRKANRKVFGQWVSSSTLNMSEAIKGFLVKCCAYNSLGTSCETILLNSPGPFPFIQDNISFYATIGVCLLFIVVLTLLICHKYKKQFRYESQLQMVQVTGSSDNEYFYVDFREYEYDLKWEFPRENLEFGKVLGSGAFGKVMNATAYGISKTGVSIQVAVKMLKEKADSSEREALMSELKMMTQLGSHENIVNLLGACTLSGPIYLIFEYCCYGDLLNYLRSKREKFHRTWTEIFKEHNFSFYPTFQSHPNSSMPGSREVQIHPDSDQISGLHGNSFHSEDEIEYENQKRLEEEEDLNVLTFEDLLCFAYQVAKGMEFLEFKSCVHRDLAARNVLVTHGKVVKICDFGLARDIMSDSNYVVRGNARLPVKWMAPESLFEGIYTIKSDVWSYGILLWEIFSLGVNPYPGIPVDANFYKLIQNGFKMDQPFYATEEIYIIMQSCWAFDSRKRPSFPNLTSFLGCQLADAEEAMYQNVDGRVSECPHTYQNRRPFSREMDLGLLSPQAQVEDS", "conditions": "change from DMSO control", "description": "as §1"}, "EGFR": {"molecular_target": "T14, EGFR (Homo sapiens, UniProt P00533)", "T14 construct": "cell lysates were prepared; endogenous in cells; host or cells: SW480 and RKO", "T14 sequence (P00533 25-1210)": "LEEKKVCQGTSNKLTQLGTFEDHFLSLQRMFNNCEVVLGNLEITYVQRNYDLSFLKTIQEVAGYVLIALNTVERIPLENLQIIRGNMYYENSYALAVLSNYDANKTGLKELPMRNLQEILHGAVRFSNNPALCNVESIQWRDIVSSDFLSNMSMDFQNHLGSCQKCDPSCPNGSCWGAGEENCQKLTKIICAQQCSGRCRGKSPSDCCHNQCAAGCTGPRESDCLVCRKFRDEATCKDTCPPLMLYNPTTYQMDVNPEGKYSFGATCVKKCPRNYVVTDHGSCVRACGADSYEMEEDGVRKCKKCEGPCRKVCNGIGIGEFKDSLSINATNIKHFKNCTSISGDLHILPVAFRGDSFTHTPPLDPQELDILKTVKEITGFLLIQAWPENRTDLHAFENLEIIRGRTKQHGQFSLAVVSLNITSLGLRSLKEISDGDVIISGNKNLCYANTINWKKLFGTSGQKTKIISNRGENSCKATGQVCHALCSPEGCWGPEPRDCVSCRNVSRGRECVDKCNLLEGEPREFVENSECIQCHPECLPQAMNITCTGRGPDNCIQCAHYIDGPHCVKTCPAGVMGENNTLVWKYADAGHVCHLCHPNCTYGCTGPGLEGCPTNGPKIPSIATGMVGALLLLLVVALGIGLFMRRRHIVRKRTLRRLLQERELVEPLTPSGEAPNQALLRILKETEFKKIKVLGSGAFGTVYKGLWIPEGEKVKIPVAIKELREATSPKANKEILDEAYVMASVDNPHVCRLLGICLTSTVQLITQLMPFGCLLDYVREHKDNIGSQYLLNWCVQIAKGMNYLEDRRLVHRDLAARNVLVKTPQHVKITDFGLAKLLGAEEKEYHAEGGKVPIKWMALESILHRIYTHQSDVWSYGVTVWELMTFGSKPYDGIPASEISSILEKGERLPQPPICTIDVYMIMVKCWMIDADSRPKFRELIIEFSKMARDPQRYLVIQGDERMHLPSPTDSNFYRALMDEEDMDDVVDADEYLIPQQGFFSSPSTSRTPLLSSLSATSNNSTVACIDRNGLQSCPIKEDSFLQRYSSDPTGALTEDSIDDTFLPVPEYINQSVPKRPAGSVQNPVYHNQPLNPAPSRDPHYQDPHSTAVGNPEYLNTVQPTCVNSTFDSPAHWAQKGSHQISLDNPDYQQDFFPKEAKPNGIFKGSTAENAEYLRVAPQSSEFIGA", "conditions": "change from DMSO control", "description": "as §1"}, "FGFR4": {"molecular_target": "T15, FGFR4 (Homo sapiens, UniProt P22455)", "T15 construct": "cell lysates were prepared; endogenous in cells; host or cells: SW480 and RKO", "T15 sequence (P22455 22-802)": "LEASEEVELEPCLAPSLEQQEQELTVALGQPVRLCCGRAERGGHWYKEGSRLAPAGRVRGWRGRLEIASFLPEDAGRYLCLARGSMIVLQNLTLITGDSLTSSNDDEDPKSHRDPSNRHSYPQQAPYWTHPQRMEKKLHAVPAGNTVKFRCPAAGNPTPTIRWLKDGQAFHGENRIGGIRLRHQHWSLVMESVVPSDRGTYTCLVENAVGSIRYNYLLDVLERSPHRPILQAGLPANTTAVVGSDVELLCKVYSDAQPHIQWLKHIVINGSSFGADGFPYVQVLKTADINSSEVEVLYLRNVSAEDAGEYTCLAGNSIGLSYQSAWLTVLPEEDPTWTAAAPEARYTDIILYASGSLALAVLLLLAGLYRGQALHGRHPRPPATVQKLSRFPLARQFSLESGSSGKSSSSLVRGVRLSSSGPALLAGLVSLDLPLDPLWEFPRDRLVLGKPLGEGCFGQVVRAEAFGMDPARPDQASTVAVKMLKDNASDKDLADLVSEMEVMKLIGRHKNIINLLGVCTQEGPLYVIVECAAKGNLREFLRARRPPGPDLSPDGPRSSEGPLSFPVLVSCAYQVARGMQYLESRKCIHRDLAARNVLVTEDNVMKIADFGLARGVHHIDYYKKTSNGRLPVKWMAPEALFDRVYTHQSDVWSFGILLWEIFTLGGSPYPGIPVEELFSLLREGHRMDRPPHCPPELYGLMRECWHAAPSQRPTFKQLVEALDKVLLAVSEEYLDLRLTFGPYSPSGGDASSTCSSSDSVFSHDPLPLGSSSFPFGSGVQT", "conditions": "change from DMSO control", "description": "as §1"}, "JAK2": {"molecular_target": "T16, JAK2 (Homo sapiens, UniProt O60674)", "T16 construct": "cell lysates were prepared; endogenous in cells; host or cells: SW480 and RKO", "conditions": "change from DMSO control", "description": "as §1"}, "FGFR1": {"tested_on": "FGFR1", "conditions": "change from DMSO control", "description": "as §1"}, "EphA1": {"molecular_target": "T17, EphA1 (Homo sapiens, UniProt P21709)", "T17 construct": "cell lysates were prepared; endogenous in cells; host or cells: SW480 and RKO", "conditions": "change from DMSO control", "description": "as §1"}}, "data": [{"smiles": "CNC(=O)c1cc(Oc2ccc(NC(=O)Nc3ccc(Cl)c(C(F)(F)F)c3)c(F)c2)ccn1", "note": "[regorafenib]", "values": [{"measurement": "Mean Kinase Statistic, FAK2", "setting": "FAK2", "value": -0.181}, {"measurement": "Mean Kinase Statistic, Abl", "setting": "Abl; RKO, 45 min", "value": -0.036}, {"measurement": "Mean Kinase Statistic, Abl", "setting": "Abl; SW480, 45 min", "value": -0.154}, {"measurement": "Mean Kinase Statistic, Axl", "setting": "Axl; RKO, 45 min", "value": -0.027}, {"measurement": "Mean Kinase Statistic, Axl", "setting": "Axl; SW480, 45 min", "value": -0.146}, {"measurement": "Mean Kinase Statistic, EphA3", "setting": "EphA3; RKO, 45 min", "value": 0.028}, {"measurement": "Mean Kinase Statistic, EphA3", "setting": "EphA3; SW480, 45 min", "value": -0.136}, {"measurement": "Mean Kinase Statistic, HER4", "setting": "HER4; RKO, 45 min", "value": 0.025}, {"measurement": "Mean Kinase Statistic, HER4", "setting": "HER4; SW480, 45 min", "value": -0.223}, {"measurement": "Mean Kinase Statistic, Fgr", "setting": "Fgr; RKO, 45 min", "value": -0.272}, {"measurement": "Mean Kinase Statistic, Fgr", "setting": "Fgr; SW480, 45 min", "value": -0.185}, {"measurement": "Mean Kinase Statistic, Src", "setting": "Src; RKO, 45 min", "value": -0.068}, {"measurement": "Mean Kinase Statistic, Src", "setting": "Src; SW480, 45 min", "value": -0.128}, {"measurement": "Mean Kinase Statistic, FGFR2", "setting": "FGFR2; RKO, 45 min", "value": 0.180}, {"measurement": "Mean Kinase Statistic, FGFR2", "setting": "FGFR2; SW480, 45 min", "value": -0.279}, {"measurement": "Mean Kinase Statistic, PDGFR[alpha]", "setting": "PDGFR[alpha]; RKO, 45 min", "value": 0.135}, {"measurement": "Mean Kinase Statistic, PDGFR[alpha]", "setting": "PDGFR[alpha]; SW480, 45 min", "value": -0.175}, {"measurement": "Mean Kinase Statistic, EphA8", "setting": "EphA8; RKO, 45 min", "value": -0.006}, {"measurement": "Mean Kinase Statistic, EphA8", "setting": "EphA8; SW480, 45 min", "value": -0.155}, {"measurement": "Mean Kinase Statistic, HER2", "setting": "HER2; RKO, 45 min", "value": 0.090}, {"measurement": "Mean Kinase Statistic, HER2", "setting": "HER2; SW480, 45 min", "value": -0.225}, {"measurement": "Mean Kinase Statistic, FGFR3", "setting": "FGFR3; RKO, 45 min", "value": 0.194}, {"measurement": "Mean Kinase Statistic, FGFR3", "setting": "FGFR3; SW480, 45 min", "value": -0.292}, {"measurement": "Mean Kinase Statistic, FLT3", "setting": "FLT3; RKO, 45 min", "value": 0.133}, {"measurement": "Mean Kinase Statistic, FLT3", "setting": "FLT3; SW480, 45 min", "value": -0.243}, {"measurement": "Mean Kinase Statistic, EGFR", "setting": "EGFR; RKO, 45 min", "value": 0.026}, {"measurement": "Mean Kinase Statistic, EGFR", "setting": "EGFR; SW480, 45 min", "value": -0.125}, {"measurement": "Mean Kinase Statistic, FGFR4", "setting": "FGFR4; RKO, 45 min", "value": 0.215}, {"measurement": "Mean Kinase Statistic, FGFR4", "setting": "FGFR4; SW480, 45 min", "value": -0.166}, {"measurement": "Mean Kinase Statistic, JAK2", "setting": "JAK2; RKO, 45 min", "value": 0.236}, {"measurement": "Mean Kinase Statistic, JAK2", "setting": "JAK2; SW480, 45 min", "value": -0.116}, {"measurement": "Mean Kinase Statistic, FGFR1", "setting": "FGFR1; RKO, 45 min", "value": 0.199}, {"measurement": "Mean Kinase Statistic, FGFR1", "setting": "FGFR1; SW480, 45 min", "value": -0.180}, {"measurement": "Mean Kinase Statistic, EphA1", "setting": "EphA1; RKO, 45 min", "value": 0.168}, {"measurement": "Mean Kinase Statistic, EphA1", "setting": "EphA1; SW480, 45 min", "value": -0.125}]}]}
